Experimental data from EP0715517B1, “ESTRENE STEROIDS AS NEU[…] CHANGE IN HUMAN HY[…] AND RELATED PHARMACEUTICAL COMPOSITIONS” (priority 1993, dated 1994).
“Also recorded” adds a separate entry of the source.

Assays:
VNO [1] = test: Electro-vomeronasogram (EVG) (Example 25); type: in vivo, human; settings: for EVG response in the male VNO (in words): male subjects, Fig. 6A and Fig. 7; for EVG response in the male VNO (in words) / EVG response in female subjects (in words) / EVG average response (mean): 100 fmoles; for EVG response in female subjects (in words): 30 female subjects (ages 20 - 45), Fig. 6B; for EVG average response (mean): male subjects (ages 20 to 38), 1 second pulses, p<0.01, Fig. 6A; for EVG response to olfactants delivered to the VNO: male and female subjects, 400 fmoles, Fig. 7B
Experimental: The following electrophysiological studies were performed in 60 clinically normal human volunteers of both sexes (30 male and 30 female) whose ages ranged from 20 to 45 years. No anesthetics were used, and female subjects were excluded if pregnant.
(§1) The stimulation and recording system consists of a "multifunctional miniprobe" described elsewhere (Monti-Bloch, L. and Grosser, B.l. (1991) "Effect of putative pheromones on the electrical activity of the human vomeronasal organ and olfactory epithelium," J. Steroid Biochem. Molec. Biol. 39:573-582.). The recording electrode is a 0.3 mm silver ball attached to a small (0.1 mm) silver wire insulated with Teflon© the surface of the electrode is first treated to produce a silver chloride interface, and is then covered with gelatin It is positioned within a small caliber Teflon© catheter (dia = […]) such that the tip of the electrode protrudes approximately 2 mm. The Teflon© catheter is 10 cm in length and constitutes the terminal extension for a multichannel delivery system which delivers a continuous air stream carrying discreet pulses of chemosensory stimuli. The air stream first passes into a small chamber and is bubbled through a solution containing either a vomeropherin or an olfactant in a diluent or the diluent alone. A solenoid is used to rapidly redirect the air stream from the chamber to a route which bypasses the chamber. This creates a discreet pulse of stimulant in the air stream. A second, outer Teflon® tube with a diameter of 2 mm surrounds the catheter-electrode assemblage, and its central end is connected to an aspirator that provides continuous suction of 3ml/s. This concentric arrangement of the outer suction tube allows the emitted chemosensory stimuli to be localized to an area we call a "minifield" (approx. dia = 1 mm), and it avoids diffusion of substances either to the area outside the intended stimulation site or into the respiratory system. The entire stimulating and recording assemblage may be positioned either on the neurosensory epithelium within the VNO, or on the surface of the olfactory or respiratory epithelium. Electro-vomeronasogram (EVG): Recordings are carried out in a quiet room with the subject supine; the multifunctional miniprobe is initially stabilized within the nasal cavity using a nasal retractor placed in the vestibule. Reference and ground electrodes consist of silver discs (8 mm), both of which are positioned on the glabella.
The entrance to the VNO, or vomeronasal pit, is identified by first dilating the nasal aperture and vestibule. A 6x magnifying binocular loupe with halogen illumination is then used to introduce the tip of the Teflon® catheter and recording electrode assemblage into the VNO opening where it is stabilized at an approximate depth of 1 mm within the vomeronasal passage. Optimal placement of the recording electrode is signaled after testing for an adequate depolarization in response to a test substance.
Electrical signals from the recording electrode are fed to a DC amplifier after which they are digitized, computer monitored, and stored. The peak-to-peak amplitude of the signals is measured, and the area under the depolarization wave is integrated, while continuously monitoring the signal both on the computer screen and on a digital oscilloscope. Artifacts produced by respiratory movements are deleted by training the subjects to practice mouth breathing with velopharyngeal closure. Chemosensory Stimulants: Olfactory test substances are cineole, and 1-carvone; vomeropherins are A, B, C, E and F. (Vomeropherins were supplied by Pherin Corporation, Menlo Park, California), Samples of vomeropherins In concentration of 25-800 fmoles are delivered in the continuous air stream for durations from 300 milliseconds to 1 second. Usually, intervals of 3 to 5 minutes separated each series of short test pulses. […]

VNO [2] = test: Cortical evoked activity (EEG, alpha cortical activity) after VNO stimulation (Example 25); type: in vivo, human
Experimental: (§2) Cortical evoked activity was induced by VNO stimulation with vomeropherins, and olfactory stimulation with odorants delivered in 300 ms air pulses. It was recorded using standard electroencephalographic (EEG) electrodes placed at positions Cz-A1 and Tz-A1 of the international […] system; the ground electrode was placed on the mastoid process. Electrodermal activity (EDA) was recorded using standard 8 mm silver electrodes in contact with palmar skin of the medial and ring fingers respectively, through a conductive gel interface. Skin temperature (ST) was recorded by a small (1.0 mm) thermistor probe placed in the right ear lobe. Peripheral arterial pulse (PAP) was monitored with a plethysmograph attached to the tip of the index finger. Respiratory frequency (RF) was measured with an adjustable strain gauge placed around the lower thorax. All electrical signals were DC amplified, digitized (MP-100, Biopac Systems) and continuously monitored utilizing a computer. Statistical Analysis: EVGs or EOGS, peak-to-peak changes and frequency changes of other parameters were measured and statistically analyzed. The significance of the results was determined by either using paired t-tests or analysis of variance (ANOVA). […] Recordings of the EVG were performed on 30 men and 30 women (ages 20 to 45). Vomeropherins were diluted and applied as 1 second pulses to the VNO with […] intervals between pulses when questioned, the subjects were not able to "smell" or otherwise consciously detect any of the vomeropherins.
[…] […] Synchronization of the EEG was sustained for 1.5 to 2.7 minutes after application of a single pulse of active substance.

[3] = system: olfactory epithelium (OE); test: Electro-olfactgram (EOG) (Example 25); type: in vivo, human; settings: 20 subjects (10 males, 10 females); 200 fmoles vomeropherins, 400 fmoles olfactants; one second pulses; Fig. 7A
Source text: as §1
Electrical signals from the recording electrode are fed to a DC amplifier after which they are digitized, computer monitored, and stored. The peak-to-peak amplitude of the signals is measured, and the area under the depolarization wave is integrated, while continuously monitoring the signal both on the computer screen and on a digital oscilloscope. […]
Effects of Vomeropherins on the EOG: The summated receptor potential from the olfactory epithelium (OE) was recorded in 20 subjects: 10 males and 10 females. […]

VNO [4] = test: Electrodermal activity (EDA) after VNO stimulation (Example 25); type: in vivo, human; settings: p<0.01, n = 30; for decrease in EDA: female subjects; for skin resistance (electrodermal activity, EDA): male subjects, Fig. 6C
Experimental: as §2

VNO [5] = test: Skin temperature (ST) after VNO stimulation (Example 25); type: in vivo, human
Experimental: as §2

[6] = system: human vomeronasal organ (VNO); test: Local electrical potentials recorded from the VNO after localized gaseous stimulation (Example 20); type: in vivo; settings: for VNO response, males compared with females (sexually dimorphic): Fig. 2B; for VNO response: males, about 25 pg of steroid-ligand puffed 1 to 2 seconds, response measured in mV x s, Fig. 2A
Experimental: A non-invasive method has been employed to record local electrical potentials from the human vomeronasal organ (VNO) and from the olfactory epithelium (OE). Localized gaseous stimulation was applied to both nasal structures at different instances using specially designed catheter/electrodes connected to a multichannel drug delivery system.
The study was performed on ten clinically normal (screened) volunteers - 2 males and 8 females, ranging in age from 18 to 85 years. The studies were conducted without general or local anesthetics.
The catheter/electrodes were designed to deliver a localized stimulus and simultaneously record the response. In the case of VNO recording, the right nasal fosa of the subject was explored using a nasoscope (nasal specula) and the vomeronasal opening was localized close to the intersection of the anterior edge of the vomer and the nasal floor. The catheter/electrode was gently driven through the VNO-opening and the electrode tip placed in the organ's lumen at 1 to 3 mm from the opening. The nasoscope was then removed. In the case of the OE, recording the procedure was similar except the positioning of the catheter/electrode was gently placed deep in the lateral part of the medial nasal duct, reaching the olfactory mucosa.
Localized gaseous stimulation was done through the catheter/electrode. A constant stream of clean, nonodorous, humidified air at room temperature was continuously passed through a channel of the stimulating system. The stimulating ligand substances were diluted in propylene glycol, mixed with the humidified air, and puffed for from 1 to 2 seconds through the catheter/electrode. It is estimated that this administration provides about 25 pg of steroid-ligand to the nasal cavity.

VNO [7] = test: Autonomic responses to Estrene stimulation of the VNO (Example 22); type: in vivo, human; settings: 40 male subjects, 1 second pulse
Experimental: Various autonomic parameters were monitored while 1,3,5(10), 16-Estratetraen-3-yl-acetate was administered to 40 male subjects using the procedure described in Example 20. Propylene glycol was also administered as a control. The ligand was administered as a 1 second pulse. The change in autonomic function was first noted within 2 seconds and lasted for up to 45 seconds.

[8] = females, single pulse (200 fmoles), Fig. 6F
[9] = 30 female subjects, p<0.01, compared to A and C, Fig. 6H
[10] = males, 200 fmoles, air pulses 300 ms to 1 sec, Fig. 6E
[11] = 30 male subjects, p<0.01, Fig. 6G

C[C@@]12C=CC[C@H]1[C@@H]1CCC3=CC(=O)CC[C@]3(C)[C@H]1CC2 [B, Androsta-4,16-dien-3-one]
EVG response in the male VNO (in words) (VNO [1]): significantly reduced responses in the male VNO
alpha cortical activity (VNO [2]; [8]): increased alpha cortical
EOG local response of the OE (in words) [3]: the only vomeropherin having significant effect in the OE; also recorded: significant (p<0.01) local response
decrease in EDA (VNO [4]): greater decrease in EDA than A or C
skin temperature (ST) (VNO [5]; [9]): significant increase in skin temperature

C[C@@]12C=CC[C@H]1[C@@H]1CCC3=C[C@@H](O)CC[C@]3(C)[C@H]1CC2 [F, Androsta-4,16-dien-3β-ol]
EVG response in female subjects (in words) (VNO [1]): produced the most significant differences within the group
EVG response in the male VNO (in words) (VNO [1]): significantly reduced responses in the male VNO
alpha cortical activity (VNO [2]; [8]): increased alpha cortical
decrease in EDA (VNO [4]): greater decrease in EDA than A or C
skin temperature (ST) (VNO [5]; [9]): significant increase in skin temperature

C[C@]12CC[C@@H]3c4ccc(O)cc4CC[C@H]3[C@@H]1C[C@@H](O)[C@@H]2O [1,3,5(10)-Estratrien-3, 16α,17δ-triol]
VNO response, males compared with females (sexually dimorphic) [6]: approximately four times as strong in males as it is in females
VNO response [6]: strong VNO response

CC(=O)Oc1ccc2c(c1)CC[C@@H]1[C@@H]2CC[C@]2(C)C=CC[C@@H]12 [A, 1,3, 5(10),16-Estratetraen-3-yl acetate]
change in autonomic function first noted (onset) (VNO [7]): ≤ 2 s
change in autonomic function lasted (duration) (VNO [7]): up to 45 seconds
integrated receptor potential in the VNO (VNO [7]; compared to propylene glycol control, Fig. 4A): significant change
galvanic skin response (VNO [7]; compared to propylene glycol control, Fig. 4B): significant change
EVG response in female subjects (in words) (VNO [1]): small effect that was significantly different from F
EVG average response (mean) (VNO [1]): 11.4 mV
alpha cortical activity (VNO [2]; [10]): significantly increased alpha cortical activity; also recorded: strongest effect
latency of increase in alpha cortical activity (VNO [2]; males, 200 fmoles, Fig. 6E): 270 to 380 ms
skin resistance (electrodermal activity, EDA) (VNO [4]): decreased skin resistance
skin temperature (ST) (VNO [5]; [11]): significant increase in skin temperature

CC12CCC(CC1)C(C)(C)O2 [cineole, reference compound]
EVG response to olfactants delivered to the VNO (VNO [1]): only a minor local response in the VNO; also recorded: do not induce a significant EVG response
EOG local response of the OE (in words) [3]: strong response in both men and women; also recorded: significant (p<0.01) local response

C[C@@]12C=CC[C@H]1[C@@H]1CCC3=C[C@H](O)CC[C@]3(C)[C@H]1CC2 [E, Androsta-4,16-dien-3α-ol]
EVG response in female subjects (in words) (VNO [1]): does not stimulate the VNO in female subjects
EOG local response of the OE (in words) [3]: stronger olfactory effect than does F; also recorded: significant (p<0.01) local response

C[C@@]12C=CC[C@H]1[C@@H]1CCc3cc(O)ccc3[C@H]1CC2 [C, 1,3,5(10),16-Estratetraen-3-ol]
EVG average response (mean) (VNO [1]): 6.4 mV
alpha cortical activity (VNO [2]; [10]): significantly increased alpha cortical activity
latency of increase in alpha cortical activity (VNO [2]; males, 200 fmoles, Fig. 6E): 270 to 380 ms
VNO response, males compared with females (sexually dimorphic) [6]: approximately four times as strong in males as it is in females
VNO response [6]: significantly stronger VNO response in males than do the other compounds tested
skin resistance (electrodermal activity, EDA) (VNO [4]): decreased skin resistance
skin temperature (ST) (VNO [5]; [11]): significant increase in skin temperature

C=C(C)[C@@H]1CC=C(C)C(=O)C1 [1-carvone, reference compound]
EVG response to olfactants delivered to the VNO (VNO [1]): only a minor local response in the VNO; also recorded: do not induce a significant EVG response
EOG local response of the OE (in words) [3]: strong response in both men and women; also recorded: significant (p<0.01) local response
